Results from ChEMBL document CHEMBL3045756, “Design, synthesis, antifungal activity, and ADME prediction of functional analogues of terbinafine” (Med Chem Res, 2009).
Converted amounts (≈) assume the structure as drawn.

What was measured:
Candida albicans = experiment: Antifungal activity against Candida albicans NCIM 3557 after 48 hr by agar streak dilution method; assay type: functional; conditions: NCIM 3557, 48 h
[1] = Acute toxicity in po dosed Mus musculus (mouse); assay type: organism-based; conditions: in vivo

Row | SMILES | MIC (Candida albicans) [µg/mL] | LD50 [1] [mg/kg]
1 | CN(Cc1cc2ccccc2o1)Cc1cccc2cccnc12 | > 100 | 
2 | CN(Cc1cccc2cccnc12)Cc1cccc2cccnc12 | 4 (≈ 12.8 µM) | 700
3 | CN(Cc1ccc2ccccc2c1)Cc1cccc2cccnc12 | 8 (≈ 25.6 µM) | > 2000
4 | CN(Cc1ccc(-c2ccccc2C#N)cc1)Cc1cccc2cccnc12 | > 100 | 
5 | CN(Cc1ccc([N+](=O)[O-])cc1)Cc1cccc2cccnc12 | 25 (≈ 81.3 µM) | > 2000
6 | CN(Cc1ccc(Cl)cc1)Cc1cccc2cccnc12 | 75 (≈ 253 µM) | 
7 | CN(Cc1nc2cc(Cl)ccc2[nH]1)Cc1cccc2cccnc12 | 10 (≈ 29.7 µM) | > 2000
8 | CN(Cc1nc2cc([N+](=O)[O-])ccc2[nH]1)Cc1cccc2cccnc12 | 25 (≈ 72 µM) | > 2000
9 | Cc1ccc2[nH]c(CN(C)Cc3cccc4cccnc34)nc2c1 | > 100 | 
10 | CN(Cc1nc2ccccc2[nH]1)Cc1cccc2cccnc12 | 40 (≈ 132 µM) | 
